# Article PMC3711284, “Anti-antimicrobial Peptides” (The Journal of Biological Chemistry, 2013)
# Read-outs that look alike come from different tables or passages of the source. Where no end group is shown, it is not given here.
# Key:
# [1] = system: S. aureus (ATCC6538); assay type: cell-based, Staphylococcus aureus
# [2] = system: human erythrocytes; assay: Hemolysis assay; assay type: cell-based
# Procedure: Hemolysis was determined by incubating 10% (v/v) suspension of human erythrocytes with peptides. Erythrocytes were rinsed four times in 10 mM PBS, pH 7.2, by repeated centrifugation and resuspension (3 min at 3000 × g). Erythrocytes were incubated at room temperature for 1 h in either deionized water (fully hemolysed control), PBS, or with peptide in PBS. After centrifugation at 10,000 × g for 5 min, the supernatant was separated from the pellet and the absorbance measured at 550 nm. Absorbance of the suspension treated with deionized water defined complete hemolysis. The values below correspond to the percentage of hemolysis at tested concentrations. All tests were done in triplicate.
# [3] = system: Bacillus subtilis ATCC 6633; assay type: cell-based
# Procedure: (§1) MICs were determined by broth microdilution on Pseudomonas aeruginosa ATCC 27853, Escherichia coli K12, Staphylococcus aureus ATCC 25723, Micrococcus luteus NCIMB 13267, and Bacillus subtilis ATCC 6633 according to the Clinical and Laboratory Standards Institute. Typically, 100 μl of 0.5–1 × 10^6 cfu/ml of each bacterium in Mueller-Hinton medium broth (Oxoid) was incubated in 96-well microtiter plates with 100 μl of serial 2-fold dilutions of the peptides (from 100 to 0 μM) at 37 °C on a three-dimensional orbital shaker. The absorbance was measured after peptide addition at 600 nm using a Victor 2 plate reader (PerkinElmer Life Sciences). MICs were defined as the lowest peptide concentration after 24 h at 37 °C. All tests were done in triplicate.
# [4] = system: Micrococcus luteus NCIMB 13267; assay type: cell-based
# Procedure: as §1
# [5] = system: Pseudomonas aeruginosa ATCC 27853; assay type: cell-based
# Procedure: as §1
# [6] = system: Escherichia coli K12; assay type: cell-based
# Procedure: as §1
# [7] = system: E. coli; assay: Gram stain assay after overnight incubation with peptide; assay type: cell-based, Escherichia coli; conditions: incubated with peptide for 16 h, optical microscopy; anti-cBt:cBt 10:1 (100:10 μM)
# Procedure: (§2) 20 μl of a bacterium culture was dispensed onto a glass slide and spread well. The slide was swiftly passed through a Bunsen flame to dry and fix cells before staining. The fixed bacteria were first covered in crystal violet (0.25%) for 30 s followed by washing with water (distilled, filtered 0.22 μm) until all of the excess stain was washed off, and then with iodine (1.0%) for 2 min before washing with a minimum amount of acetone needed to rinse off the iodine color. The cells were counterstained with safranin (0.5%) for 30 s, washed with water, and dried by a Bunsen flame. The obtained slides were viewed under a Leica DMLB fluorescent microscope. The images were obtained at ×100 magnification under oil and analyzed by ImageJ.
# [8] = system: cBt; assay: Isothermal titration calorimetry of anti-cBt into cBt; assay type: binding; conditions: ITC, 20 °C
# Procedure: Measurements were obtained using a Microcal VP-isothermal titration calorimeter and a calorimetric cell (initial volume 1.46 ml) with a 260-s equilibration time and a 120-s initial delay after each addition. The titrations were performed at 20 °C with stirring until no further enthalpy changes were observed. Binding isotherms were recorded for cBt (30 μM) following the injection of anti-cBt (2 μl aliquots, 1.4 mM) into the cell. The observed heats were corrected for dilution effects by titrating peptide solutions, as appropriate, into the buffer and using the heat of last injections due to negligible differences between the first and last injections. All the data were corrected for the volume of the added titrant and analyzed by proprietary software (Microcal Origin 7) using a one-site binding model to allow for the determination of association constants (Ka), changes in enthalpy (ΔH) and enthropy (ΔS). Each experiment was performed in triplicate.
# [9] = system: P. aeruginosa; assay: Gram stain assay after overnight incubation with peptide; assay type: cell-based, Pseudomonas aeruginosa; conditions: incubated with peptide for 16 h, optical microscopy; anti-cBt:cBt 10:1 (100:10 μM)
# Procedure: as §2
# [10] = system: S. aureus (ATCC 25723); assay type: cell-based
# Procedure: S. aureus (ATCC 25723) culture (1 ml) was centrifuged to give a cell pellet, which was washed twice with 10 mM phosphate buffer, pH 7.4, before being reconstituted in phosphate buffer to give A600 nm = 0.008. 1 ml of the solution was dispensed in a 2-well glass chamber (LabTek) with diluted (1/500) propidium iodide (1 mg/ml, from Invitrogen). The chambers with surface-settled bacteria (60 min) were mounted on a confocal microscope (Olympus) equipped with an incubation chamber at 37 °C. Propidium iodide fluorescence emission was monitored at 625 nm for 60 min (three frames/min) using an appropriate filter after the addition of peptide (1 ml). Recorded images (XYZ) were analyzed using Fiji software to plot the number of fluorescent (stain-dead) cells as a function of time.
# [11] = broth microdilution, Mueller-Hinton broth, 24 h, 37 °C, A600, triplicate
# [12] = human erythrocytes 10% (v/v) in PBS pH 7.2, 1 h, room temperature, A550, 50% cell death compared with untreated cells, triplicate
Substance,"Minimum inhibitory concentration (MIC) S. aureus (ATCC6538) ([1]; ATCC6538, 24 h)",HE (LC50) ([2]; pH 7.2),"Minimum inhibitory concentration (MIC) B. subtilis (ATCC6633) ([3]; ATCC 6633, 24 h)","Minimum inhibitory concentration (MIC) M. luteus (NCIMB 13267) ([4]; NCIMB 13267, 24 h)","Minimum inhibitory concentration (MIC) P. aeruginosa (ATCC27853) ([5]; ATCC 27853, 24 h)","Minimum inhibitory concentration (MIC) E. coli (K12) ([6]; K12, 24 h)","effect on E. coli cell growth, Gram stain [7]","Minimum inhibitory concentration (MIC) S. aureus (ATCC6538) [1, 11]","HE (LC50) [2, 12]","association (binding) constant (Ka) ([8]; anti-cBt (1.4 mM) injected into cBt (30 μM), one-site binding model, triplicate)",ΔG of binding ([8]; anti-cBt into cBt (30 μM)),"binding enthalpy (ΔH) ([8]; anti-cBt into cBt (30 μM), endothermic)","Minimum inhibitory concentration (MIC) B. subtilis (ATCC6633) [3, 11]","Minimum inhibitory concentration (MIC) M. luteus (NCIMB 13267) [4, 11]","Minimum inhibitory concentration (MIC) P. aeruginosa (ATCC27853) [5, 11]","Minimum inhibitory concentration (MIC) E. coli (K12) [6, 11]","effect on P. aeruginosa cell growth, Gram stain [9]","effect on killing of S. aureus at concentrations >100 μM ([10]; stain-dead S. aureus, propidium iodide, 37 °C)","killing rate at higher concentrations (>250 μM) ([10]; stain-dead S. aureus, cBt at MIC after 1 h = 100%)","killing rate in the first 30 min ([10]; ATCC 25723, 1 h, 100 μM, pH 7.4)"
"GRFKRFRKKFKKLFKKLSPVIPLLHLG-NH2 [b27, bovine myeloid antimicrobial peptide-27, reference compound]",>100 µM,≫250 μM,0.78 ± 0.01 µM,0.74 ± 0.33 µM,4.51 ± 1.56 µM,3.13 ± 0.43 µM,–,–,–,–,–,–,–,–,–,–,–,–,–,–
GEFAQFEQEAQSLEQELSQLEQQLESL-NH2 [Anti-b27],>200 µM,≫250 μM,>200 µM,>200 µM,>200 µM,>200 µM,–,–,–,–,–,–,–,–,–,–,–,–,–,–
EAQNLEKEIAALEQAIQGLEKEIPALAQQIQALEL-NH2 [Anti-cBt],–,–,–,–,–,–,No obvious effects,>200 µM,≫250 μM,2.8 ± 0.2 × 10^6 M^−1,-32.6 kJ/mol,40.6 kJ/mol,>200 µM,>200 µM,>200 µM,>200 µM,No obvious effects,No effects,10%,–
"KWKVFKKIEKMGRNIRNGIVKAGPAIAVLGEAKAL-NH2 (C-terminus assumed) [cB, cecropin B, reference compound]",>100 µM,–,50.7 ± 0.10 µM,0.46 ± 0.20 µM,1.56 ± 0.01 µM,0.62 ± 0.01 µM,–,–,≫250 μM,–,–,–,–,–,–,–,–,–,–,~60%
